Data taken from US20240358693A1, “METHODS OF TREATING PAIN” (Aisa Pharma, Inc., priority 2023, published 2024).

System: participants with SSc-RP
Assay: Average duration of weekly RP attacks (minutes)
Type: in vivo, human
Conditions: Tadalafil 5 mg
Text: The absolute change in average duration of weekly RP attacks from baseline to the end of each dosing period was and will be a secondary outcome variable. The sponsor-developed participant-informed diary was and will be used to record data. Average duration of weekly RP attacks is defined as the total duration of RP attacks divided by total number of RP attacks within the last 7 days of each dosing period. Total duration of RP attacks during the last 7 days of screening period divided by the total number of RP attacks will be used as baseline for the analysis of all periods. The variable will be calculated similar to frequency data as before.

[1] = n=1, Excluding Outliers, ITT Part A
[2] = Baseline RCS subgroup 2 (unnamed), ITT Part A
[3] = Excluding Outliers, Baseline RCS subgroup 2 (unnamed), ITT Part A
[4] = Excluding Outliers, ITT Population - Part A
[5] = Excluding Outliers, by Baseline RCS, subgroup 2, ITT Population - Part A
[6] = by Baseline RCS, subgroup 2, ITT Population - Part A

CN1CC(=O)N2[C@H](c3ccc4c(c3)OCO4)c3[nH]c4ccccc4c3C[C@@H]2C1=O [Tadalafil, tadalafil] was tested, and the “Average Duration of Weekly Symptomatic RP Attacks, Change from Baseline, Mean” value [1] was -4.58 min, the “Average Duration of Weekly Symptomatic RP Attacks, Change from Baseline, Median” value [1] was -4.58 min and the “Average Duration of Weekly Symptomatic RP Attacks, Mean” value [1] was 6.00 min. The “Average Duration of Weekly Symptomatic RP Attacks, Median” value [1] was 6.00 min, the “Average Duration of Weekly Symptomatic RP Attacks, Percent Change from Baseline, Mean” value [1] was −43.31% and the “Average Duration of Weekly Symptomatic RP Attacks, Percent Change from Baseline, Median” value [1] was −43.31%. The “Average Duration of Weekly Symptomatic RP Attacks, Change from Baseline, Mean” value (n=2, ITT Part A) was 140.74 min, the “Average Duration of Weekly Symptomatic RP Attacks, Change from Baseline, Median” value (n=2, ITT Part A) was 140.74 min and the “Average Duration of Weekly Symptomatic RP Attacks, Mean” value (n=2, ITT Part A) was 412.29 min. For the same molecule, the “Average Duration of Weekly Symptomatic RP Attacks, Median” value (n=2, ITT Part A) was 412.29 min, the “Average Duration of Weekly Symptomatic RP Attacks, Percent Change from Baseline, Mean” value (n=2, ITT Part A) was 5.21% and the “Average Duration of Weekly Symptomatic RP Attacks, Percent Change from Baseline, Median” value (n=2, ITT Part A) was 5.21%. The “Average Duration of Weekly Symptomatic RP Attacks, Change from Baseline, Mean” value [2] was 140.74 min, the “Average Duration of Weekly Symptomatic RP Attacks, Change from Baseline, Median” value [2] was 140.74 min and the “Average Duration of Weekly Symptomatic RP Attacks, Mean” value [2] was 412.29 min. The “Average Duration of Weekly Symptomatic RP Attacks, Median” value [2] was 412.29 min, the “Average Duration of Weekly Symptomatic RP Attacks, Percent Change from Baseline, Mean” value [2] was 5.21% and the “Average Duration of Weekly Symptomatic RP Attacks, Percent Change from Baseline, Median” value [2] was 5.21%. The “Average Duration of Weekly Symptomatic RP Attacks, Change from Baseline, Mean” value [3] was -4.58 min, the “Average Duration of Weekly Symptomatic RP Attacks, Change from Baseline, Median” value [3] was -4.58 min and the “Average Duration of Weekly Symptomatic RP Attacks, Mean” value [3] was 6.00 min. The “Average Duration of Weekly Symptomatic RP Attacks, Median” value [3] was 6.00 min, the “Average Duration of Weekly Symptomatic RP Attacks, Percent Change from Baseline, Mean” value [3] was −43.31% and the “Average Duration of Weekly Symptomatic RP Attacks, Percent Change from Baseline, Median” value [3] was −43.31%. For the same molecule, the “Average Duration of Weekly RP Attacks (All Attacks) Change from Baseline, Mean” value [4] was -4.98 min, the “Average Duration of Weekly RP Attacks (All Attacks) Change from Baseline, Median” value [4] was -4.98 min and the “Average Duration of Weekly RP Attacks (All Attacks) Percent Change from Baseline, Mean” value [4] was −45.55%. For the same molecule, the “Average Duration of Weekly RP Attacks (All Attacks) Percent Change from Baseline, Median” value [4] was −45.55%, the “Average Duration of Weekly RP Attacks (All Attacks), Mean” value (from here on “Average Duration … (All Attacks), Mean”) [4] was 5.95 min and the “Average Duration of Weekly RP Attacks (All Attacks), Median” value (“Average Duration … (All Attacks), Median” for short) [4] was 5.95 min. For the same molecule, the “Average Duration of Weekly RP Attacks (All Attacks) Change from Baseline, Mean” value [5] was -4.98 min, the “Average Duration of Weekly RP Attacks (All Attacks) Change from Baseline, Median” value [5] was -4.98 min and the “Average Duration of Weekly RP Attacks (All Attacks) Percent Change from Baseline, Mean” value [5] was −45.55%. The “Average Duration of Weekly RP Attacks (All Attacks) Percent Change from Baseline, Median” value [5] was −45.55%, the “Average Duration … (All Attacks), Mean” value [5] was 5.95 min and the “Average Duration … (All Attacks), Median” value [5] was 5.95 min. The “Average Duration of Weekly RP Attacks (All Attacks) Change from Baseline, Mean” value (ITT Part A) was 91.80 min, the “Average Duration of Weekly RP Attacks (All Attacks) Change from Baseline, Median” value (ITT Part A) was 91.80 min and the “Average Duration of Weekly RP Attacks (All Attacks) Percent Change from Baseline, Mean” value (ITT Part A) was −7.81%. For the same molecule, the “Average Duration of Weekly RP Attacks (All Attacks) Percent Change from Baseline, Median” value (ITT Part A) was −7.81%, the “Average Duration … (All Attacks), Mean” value (ITT Part A) was 412.26 min and the “Average Duration … (All Attacks), Median” value (ITT Part A) was 412.26 min. For the same molecule, the “Average Duration of Weekly RP Attacks (All Attacks) Change from Baseline, Mean” value [6] was 91.80 min, the “Average Duration of Weekly RP Attacks (All Attacks) Change from Baseline, Median” value [6] was 91.80 min and the “Average Duration of Weekly RP Attacks (All Attacks) Percent Change from Baseline, Mean” value [6] was −7.81%. For the same molecule, the “Average Duration of Weekly RP Attacks (All Attacks) Percent Change from Baseline, Median” value [6] was −7.81%, the “Average Duration … (All Attacks), Mean” value [6] was 412.26 min and the “Average Duration … (All Attacks), Median” value [6] was 412.26 min.
